This passage reports Vd results from ChEMBL document CHEMBL5108064, “Comparative Analysis of Small-Molecule LIMK1/2 Inhibitors: Chemical Synthesis, Biochemistry, and Cellular Activity” (J Med Chem, 2022).

The data set is described as follows: Volume of distribution at steady state in Sprague-Dawley rat at 0.5 mg/kg, iv by LCMS/MS analysis. Conditions: in vivo, read-out: Vdss. Type of data set: ADME, organism-based.

Structures are written as SMILES.

As to `Cc1c[nH]c2ncnc(N3CCC(CN)(C(=O)Nc4cccc(OC(=O)N(C)C)c4)CC3)c12` [LX-7101], the Vd came to 0.5 L/kg.
